Activity and inhibition data for two compounds are collected here from ChEMBL document CHEMBL4421717, “Antagonists and agonists of bitter taste receptors and uses thereof” (2012).

Molecules are shown by their SMILES. Calls of active or inactive are those of the source. The rule behind the calls is not given here.

Type in all cases: functional, cell-based
For test [1], the target named is T1, Taste receptor type 2 member 3 (Homo sapiens) (UniProt Q9NYW6).
T1 sequence (whole entry): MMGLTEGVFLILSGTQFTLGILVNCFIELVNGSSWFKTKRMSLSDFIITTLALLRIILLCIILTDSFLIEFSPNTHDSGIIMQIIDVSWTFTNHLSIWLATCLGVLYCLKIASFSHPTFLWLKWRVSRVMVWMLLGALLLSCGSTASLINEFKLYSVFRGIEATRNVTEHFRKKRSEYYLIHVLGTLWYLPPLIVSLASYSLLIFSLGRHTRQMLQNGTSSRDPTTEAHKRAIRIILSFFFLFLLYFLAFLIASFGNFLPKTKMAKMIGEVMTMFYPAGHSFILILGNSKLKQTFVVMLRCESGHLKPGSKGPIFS
Kind of test: Activity at recombinant human N-terminal rat ST3 receptor-fused TAS2R3 expressed in HEK293T cells co-expressing Galpha16gust44 assessed as effect on chloroquine-induced intracellular calcium level at 100 uM by FLIPR assay. For orientation: Calcium flux is commonly read through the fluorescence of an indicator in the cells.

The target of test [2] is T2, Taste receptor type 2 member 39 (Homo sapiens) (UniProt P59534).
T2 sequence (whole entry): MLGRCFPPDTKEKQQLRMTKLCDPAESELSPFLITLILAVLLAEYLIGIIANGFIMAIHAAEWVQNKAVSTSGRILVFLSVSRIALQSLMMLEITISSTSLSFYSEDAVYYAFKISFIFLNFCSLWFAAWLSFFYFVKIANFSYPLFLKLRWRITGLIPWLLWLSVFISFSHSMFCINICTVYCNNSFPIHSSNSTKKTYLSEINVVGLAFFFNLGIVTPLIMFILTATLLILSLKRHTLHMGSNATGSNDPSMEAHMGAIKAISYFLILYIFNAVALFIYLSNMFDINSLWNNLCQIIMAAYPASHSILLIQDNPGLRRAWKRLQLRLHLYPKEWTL
Kind of test: Activity at recombinant human N-terminal rat ST3 receptor-fused TAS2R39 expressed in HEK293T cells co-expressing Galpha16gust44 assessed as effect on epigallocatechin gallate-induced intracellular calcium level at 100 uM by FLIPR assay.

Test [3] has as its target T3, Taste receptor type 2 member 8 (Homo sapiens) (UniProt Q9NYW2).
T3 sequence (whole entry): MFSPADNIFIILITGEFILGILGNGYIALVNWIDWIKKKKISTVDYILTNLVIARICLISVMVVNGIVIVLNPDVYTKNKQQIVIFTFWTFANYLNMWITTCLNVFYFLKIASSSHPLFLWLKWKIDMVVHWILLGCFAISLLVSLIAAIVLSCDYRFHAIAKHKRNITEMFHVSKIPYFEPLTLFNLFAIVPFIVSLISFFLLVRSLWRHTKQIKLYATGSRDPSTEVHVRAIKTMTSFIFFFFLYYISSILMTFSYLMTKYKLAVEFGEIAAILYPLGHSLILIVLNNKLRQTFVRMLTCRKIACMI
Kind of test: Activity at recombinant human N-terminal rat ST3 receptor-fused TAS2R8 expressed in HEK293T cells co-expressing Galpha16gust44 assessed as effect on chloramphenicol-induced intracellular calcium level at 100 uM by FLIPR assay.

Test [4] has as its target T4, Taste receptor type 2 member 50 (Homo sapiens) (UniProt P59544).
T4 sequence (whole entry): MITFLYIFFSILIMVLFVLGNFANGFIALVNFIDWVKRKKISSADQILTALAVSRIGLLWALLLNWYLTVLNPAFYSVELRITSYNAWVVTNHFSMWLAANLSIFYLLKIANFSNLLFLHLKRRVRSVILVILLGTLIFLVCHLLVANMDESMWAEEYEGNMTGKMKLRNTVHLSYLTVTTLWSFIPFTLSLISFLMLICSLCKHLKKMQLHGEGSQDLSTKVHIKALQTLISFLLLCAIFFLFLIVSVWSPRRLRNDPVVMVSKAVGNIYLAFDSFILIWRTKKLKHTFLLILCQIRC
Kind of test: Activity at recombinant human N-terminal rat ST3 receptor-fused TAS2R50 expressed in HEK293T cells co-expressing Galpha16gust44 assessed as effect on andrographolide-induced intracellular calcium level at 100 uM by FLIPR assay.

Test [5] addresses T5, Taste receptor type 2 member 20 (Homo sapiens) (UniProt P59543).
T5 sequence (whole entry): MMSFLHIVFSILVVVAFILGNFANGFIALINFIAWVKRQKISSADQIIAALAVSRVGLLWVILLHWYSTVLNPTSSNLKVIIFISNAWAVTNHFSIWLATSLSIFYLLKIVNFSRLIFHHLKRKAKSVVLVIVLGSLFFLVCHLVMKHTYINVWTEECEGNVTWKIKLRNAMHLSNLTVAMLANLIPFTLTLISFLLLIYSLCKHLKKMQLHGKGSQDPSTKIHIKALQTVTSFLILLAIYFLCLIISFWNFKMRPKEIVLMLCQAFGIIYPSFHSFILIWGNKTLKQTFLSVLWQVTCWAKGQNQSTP
Kind of test: Activity at recombinant human N-terminal rat ST3 receptor-fused TAS2R49 expressed in HEK293T cells co-expressing Galpha16gust44 assessed as effect on cromolyn-induced intracellular calcium level at 100 uM by FLIPR assay.

The target of test [6] is T6, Taste receptor type 2 member 46 (Homo sapiens) (UniProt P59540).
T6 sequence (whole entry): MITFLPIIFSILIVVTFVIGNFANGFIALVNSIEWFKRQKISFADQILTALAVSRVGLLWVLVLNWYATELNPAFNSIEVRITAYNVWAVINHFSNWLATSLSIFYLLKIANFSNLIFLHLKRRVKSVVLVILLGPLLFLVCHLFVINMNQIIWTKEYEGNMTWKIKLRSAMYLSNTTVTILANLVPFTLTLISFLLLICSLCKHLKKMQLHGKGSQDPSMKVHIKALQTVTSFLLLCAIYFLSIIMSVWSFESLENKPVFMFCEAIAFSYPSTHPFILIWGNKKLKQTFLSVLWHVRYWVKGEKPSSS
Kind of test: Agonist activity at recombinant human N-terminal rat ST3 receptor-fused TAS2R46 expressed in HEK293T cells co-expressing Galpha16gust44 assessed as effect on intracellular calcium level at 100 uM by FLIPR assay.

In test [7] the target is T7, Taste receptor type 2 member 30 (Homo sapiens) (UniProt P59541).
T7 sequence (whole entry): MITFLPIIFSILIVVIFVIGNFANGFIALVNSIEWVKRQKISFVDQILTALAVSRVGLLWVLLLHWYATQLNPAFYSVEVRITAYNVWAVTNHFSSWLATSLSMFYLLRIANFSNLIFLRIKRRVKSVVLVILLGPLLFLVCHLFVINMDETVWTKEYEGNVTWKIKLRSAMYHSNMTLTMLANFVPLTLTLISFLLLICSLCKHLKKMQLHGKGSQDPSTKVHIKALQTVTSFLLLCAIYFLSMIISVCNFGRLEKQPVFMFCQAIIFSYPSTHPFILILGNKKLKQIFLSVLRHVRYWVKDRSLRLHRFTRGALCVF
Kind of test: Antagonist activity at recombinant human N-terminal rat ST3 receptor-fused TAS2R47 expressed in HEK293T cells co-expressing Galpha16gust44 assessed as inhibition of brucine-induced intracellular calcium level at 100 uM by FLIPR assay.

As to `C/C1=C\C[C@H](O)/C(C)=C/[C@H]2OC(=O)[C@@H](C)C2CC1` (some centres undefined), the outcome in test [1], in test [2], in test [3], in test [4], in test [5] and in test [6] was inactive. In addition, in test [7], the inhibition (in general, the share of the control response that was lost under treatment) was “Active”.

Consider `C/C1=C\C[C@H](O)[C@@H](C)C[C@H]2OC(=O)[C@@H](C)C2CC1` (some centres undefined), for which the outcome in test [1], in test [2], in test [3], in test [4] and in test [5] was inactive. Besides, in test [6], the outcome was Active. In addition, the inhibition in test [7] turned out to be 100%.
